Source: PubChem BioAssay AID248 (DTP/NCI, 2004)
Values joined by “and” are separate entries in the source; they are usually repeats but may differ in a detail not shown here. Equal values may be shown once. Inconclusive results and toxic doses are left out. Cut-off read from the data, not from the text of the source: active = T/C of 150% or more; inactive = T/C below 125%.

Test system: L1210 leukemia ip in BDF1 mice, survival T/C
Experiment: NCI In Vivo Anticancer Drug Screen. Data for tumor model L1210 Leukemia (intraperitoneal) in B6D2F1 (BDF1) mice
Details: endpoint: mean survival time, higher = longer survival
Summary of the method: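 Ratio derived from survival: compound-dosed mice over vehicle-dosed mice, all bearing a transplantable tumor.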

Measured: T/C

O=C(O)c1cc(OCc2ccccc2)cc(OCc2ccccc2)c1
inactive: dose: 25.0 mg/kg/injection, schedule: Q01DX009 (ip), vehicle: carboxymethylcellulose (CMC) 102 % of control and 105 % of control | dose: 50.0 mg/kg/injection, schedule: Q01DX009 (ip), vehicle: carboxymethylcellulose (CMC) 101 % of control and 91 % of control | dose: 100.0 mg/kg/injection, schedule: Q01DX001 (ip), vehicle: carboxymethylcellulose (CMC) 101 % of control and 103 % of control | dose: 100.0 mg/kg/injection, schedule: Q01DX009 (ip), vehicle: carboxymethylcellulose (CMC) 92 % of control and 112 % of control and 91 % of control | dose: 100.0 mg/kg/injection, schedule: Q04DX002 (ip), vehicle: carboxymethylcellulose (CMC) 92 % of control and 88 % of control | dose: 100.0 mg/kg/injection, schedule: Q04DX003 (ip), vehicle: carboxymethylcellulose (CMC) 95 % of control and 97 % of control | dose: 200.0 mg/kg/injection, schedule: Q01DX001 (ip), vehicle: carboxymethylcellulose (CMC) 96 % of control and 107 % of control | dose: 200.0 mg/kg/injection, schedule: Q04DX002 (ip), vehicle: carboxymethylcellulose (CMC) 95 % of control and 97 % of control | dose: 200.0 mg/kg/injection, schedule: Q04DX003 (ip), vehicle: carboxymethylcellulose (CMC) 99 % of control and 91 % of control | dose: 400.0 mg/kg/injection, schedule: Q01DX001 (ip), vehicle: carboxymethylcellulose (CMC) 93 % of control and 96 % of control | dose: 400.0 mg/kg/injection, schedule: Q04DX002 (ip), vehicle: carboxymethylcellulose (CMC) 92 % of control and 97 % of control | dose: 400.0 mg/kg/injection, schedule: Q04DX003 (ip), vehicle: carboxymethylcellulose (CMC) 92 % of control and 100 % of control

CNN1CCOC1=O
inactive: dose: 100.0 mg/kg/injection, schedule: Q04DX002 (ip), vehicle: saline 100 % of control | dose: 200.0 mg/kg/injection, schedule: Q04DX002 (ip), vehicle: saline 100 % of control | dose: 400.0 mg/kg/injection, schedule: Q04DX002 (ip), vehicle: saline 104 % of control

O=S(=O)(O)c1ccc(-c2ccc([As](=O)(O)O)cc2)cc1
inactive: dose: 100.0 mg/kg/injection, schedule: Q04DX002 (ip), vehicle: saline with Tween-80 95 % of control | dose: 200.0 mg/kg/injection, schedule: Q04DX002 (ip), vehicle: saline with Tween-80 103 % of control | dose: 400.0 mg/kg/injection, schedule: Q04DX002 (ip), vehicle: saline with Tween-80 87 % of control

CCOC(=O)C1=C2c3ccc4cc(OC)ccc4c3CCC2(C)C(=O)C1 (stereo unspecified)
inactive: dose: 100.0 mg/kg/injection, schedule: Q04DX003 (sc), vehicle: steriod suspending solution 102 % of control | dose: 200.0 mg/kg/injection, schedule: Q04DX003 (sc), vehicle: steriod suspending solution 109 % of control | dose: 400.0 mg/kg/injection, schedule: Q04DX003 (sc), vehicle: steriod suspending solution 109 % of control
